Our source for the Kd and pKa values is patent publication US20040087842A1, “Fluorescent probes for saccharrides” (priority 2002, published 2004).

The conditions of data set [1]: DSTBA, from reference 3; read-out: KD galactose; cited from earlier work.
The conditions of data set [2]: DSTBA, from reference 3; read-out: KD glucose; cited from earlier work.
Data set [3] is described as follows: Fluorescence titration curves against sugar (dissociation constant), D-fructose. The settings on record: stilbenes; pH 8.0; 33.3% methanol; read-out: KD D-fructose. The format is binding. On the procedure: (§1) Stilbene-4-boronic acid (STBA), 4′-cyanostilbene-4-boronic acid (CSTBA), 4′-methoxystilbene-4-boronic acid (MSTBA) and 4′-(dimethylamino)stilbene-4-boronic acid (DSTBA) were synthesized by the Wittig reaction between the para-substituted benzaldehydes and the para-boronic acid derivative of the benzyltriphenylphosphonium bromide. This latter was synthesized by the reaction of the p-bromomethylphenylboronic acid with triphenylphosphine in toluene. […] Absorption spectrawere recorded with a Cary 50 UV-Vis spectrophotometer from Varian. Emission spectra were recorded with a Varian Eclipse spectrofluorometer from Varian. In both cases, the measurements were taken at room temperature in a 1 cm quartz cuvette. For all measurements, the absorbances of the solutions were about 0.1 corresponding to a concentration range of 2-3×10^−6 M of the fluorophore. Fluorescence quantum yields were measured against p-quaterphenyl in cyclohexane (ΦF=0.89) for trans-stilbene (ST) and STBA, anthracene in cyclohexane (φF=0.36) for CSTBA and MSTBA and Quinine sulfate in 1N sulfuric acid (ΦF=0.577) for DSTBA.
(§2) where Iacid and Ibase are the intensity limits in the acid and basic region, respectively. Titration curves against sugar were fitted and dissociation constant (KD) values were obtained using the equation: [formula]
(§3) where Io and If are the initial (no sugar) and final (plateau) intensities of the titration curves. All solutions in water and buffer contained also 33.3% […] methanol to avoid any problem due to the aggregation.

Data set [4] can be described thus: Fluorescence titration curves against sugar (dissociation constant), D-galactose. Format: binding. Conditions: stilbenes; pH 8.0; 33.3% methanol; read-out: KD D-galactose. On the procedure:
as §1, §2, §3

Data set [5] in a line: Titration curves against pH (pKa of the boronic acid group) with and without sugar. Format: physicochemical. Conditions: aqueous buffer solutions with methanol, stilbenes. Here is the method: Titration curves against pH were measured in buffer solutions: acetate buffer for pH 4.0-5.5, phosphate buffer for pH 6.0-9.0 and carbonate buffer for pH 10,0-11.0. Titration curves were fitted and pKa (pKa=−log Ka) values were obtained using the equation: [formula]
as §2
(§4) where Io and If are the initial (no sugar) and final (plateau) intensities of the titration curves. […]

For data set [6] the following is noted: DSTBA, from reference 3; read-out: KD fructose; cited from earlier work.
Data set [7] is described as follows: Fluorescence titration curves against sugar (dissociation constant), D-glucose. Format: binding. The settings on record: stilbenes; pH 8.0; 33.3% methanol; read-out: KD D-glucose. On the procedure:
as §1, §2, §4

Like-named read-outs stand apart in the source and are kept apart here.

Consider `CN(C)c1ccc(/C=C/c2ccc(B(O)O)cc2)cc1` [DSTBA, 4′-(dimethylamino)stilbene-4-boronic acid], for which the Kd is 49 mM in data set [1]; 98 mM in data set [2]; 2.5 mM in data set [3]; 49 mM in data set [4]; 2.5 mM in data set [6]; 98 mM in data set [7]. The pKa in data set [5] (33.3% methanol, 50 mM D-fructose, read-out: pKa +D-fructose (50 mM)) was 6.61; in data set [5] (33.3% methanol, 50 mM D-glucose, read-out: pKa +D-glucose (50 mM)), 8.34; in data set [5] (solution contained 33.3% methanol, no sugar, read-out: pKa Alone), 9.14.
